Results published in PubChem BioAssay AID248 (DTP/NCI, 2004).
Inconclusive results and toxic doses are left out. Rule as the data show it: active = T/C of 150% or more; inactive = T/C below 125%.

Tested on: L1210 leukemia ip in BDF1 mice, survival T/C
Assay: NCI In Vivo Anticancer Drug Screen. Data for tumor model L1210 Leukemia (intraperitoneal) in B6D2F1 (BDF1) mice
Settings: endpoint: mean survival time, higher = longer survival
In short: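 Tumor cells were implanted, animals were treated, and survival was followed. The result divides the treated measurement by the vehicle-control measurement.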

[1] = dose: 100.0 mg/kg/injection, schedule: Q04DX002 (ip), vehicle: Klucel (hydroxypropylcellulose) (HPC)
[2] = dose: 100.0 mg/kg/injection, schedule: Q04DX003 (ip), vehicle: saline
[3] = dose: 200.0 mg/kg/injection, schedule: Q04DX003 (ip), vehicle: saline
[4] = dose: 400.0 mg/kg/injection, schedule: Q04DX003 (ip), vehicle: saline
[5] = dose: 100.0 mg/kg/injection, schedule: Q01DX001 (ip), vehicle: saline
[6] = dose: 200.0 mg/kg/injection, schedule: Q01DX001 (ip), vehicle: saline
[7] = dose: 400.0 mg/kg/injection, schedule: Q01DX001 (ip), vehicle: saline

Measured: T/C

O=c1c2ccccc2[nH]c2cc(Cl)ccc12
inactive: dose: 50.0 mg/kg/injection, schedule: Q01DX Z (ip), vehicle: carboxymethylcellulose (CMC) 109 % of control | dose: 100.0 mg/kg/injection, schedule: Q01DX Z (ip), vehicle: carboxymethylcellulose (CMC) 103 % of control | dose: 200.0 mg/kg/injection, schedule: Q01DX Z (ip), vehicle: carboxymethylcellulose (CMC) 97 % of control | dose: 400.0 mg/kg/injection, schedule: Q01DX Z (ip), vehicle: carboxymethylcellulose (CMC) 115 % of control

CCC1NC(=O)C(NC(=O)c2ncccc2O)C(C)OC(=O)C(c2ccccc2)NC(=O)C2CC(=O)CCN2C(=O)C(Cc2ccccc2)N(C)C(=O)C2CCCN2C1=O (stereo not given) (tested in a mixture with another compound)
inactive: dose: 18.75 mg/kg/injection, schedule: Q01DX009 (ip), vehicle: Klucel (hydroxypropylcellulose) (HPC) 91 % of control | dose: 37.5 mg/kg/injection, schedule: Q01DX009 (ip), vehicle: Klucel (hydroxypropylcellulose) (HPC) 107 % of control | dose: 75.0 mg/kg/injection, schedule: Q01DX009 (ip), vehicle: Klucel (hydroxypropylcellulose) (HPC) 98 % of control

CCN(CC)CCSC(=O)C(O)(c1ccc(C)cc1)c1ccc(C)cc1
inactive: dose: 75.0 mg/kg/injection, schedule: Q01DX001 (ip), vehicle: other 90 % of control | dose: 150.0 mg/kg/injection, schedule: Q01DX001 (ip), vehicle: other 96 % of control

C=CCNC(=S)NCc1ccc(Cl)cc1
inactive: dose: 25.0 mg/kg/injection, schedule: Q01DX009 (ip), vehicle: Klucel (hydroxypropylcellulose) (HPC) 100 % of control | dose: 50.0 mg/kg/injection, schedule: Q01DX009 (ip), vehicle: Klucel (hydroxypropylcellulose) (HPC) 102 % of control | dose: 100.0 mg/kg/injection, schedule: Q01DX009 (ip), vehicle: Klucel (hydroxypropylcellulose) (HPC) 94 % of control | [1] 111 % of control

OCC(O)C(O)C(O)C(SCc1ccccc1)SCc1ccccc1 (stereo not given)
inactive: dose: 75.0 mg/kg/injection, schedule: Q04DX002 (ip), vehicle: saline with Tween-80 93 % of control | dose: 150.0 mg/kg/injection, schedule: Q04DX002 (ip), vehicle: saline with Tween-80 117 % of control | dose: 300.0 mg/kg/injection, schedule: Q04DX002 (ip), vehicle: saline with Tween-80 101 % of control

CC1(C)OC2C(CO)OC(OCc3ccccc3)C2O1 (stereo not given)
inactive: dose: 50.0 mg/kg/injection, schedule: Q04DX003 (ip), vehicle: saline 100 % of control | [2] 91 % of control | [3] 105 % of control | [4] 88 % of control

Nc1nc(N)c(N=Nc2ccccc2S(=O)(=O)O)c(N)n1
inactive: [5] 105 % of control | [6] 89 % of control | [7] 96 % of control

N#CCCP(CCC#N)CCCCCP(CCC#N)CCC#N
inactive: dose: 100.0 mg/kg/injection, schedule: Q01DX001 (ip), vehicle: saline with Tween-80 100 % of control | dose: 200.0 mg/kg/injection, schedule: Q01DX001 (ip), vehicle: saline with Tween-80 92 % of control | dose: 400.0 mg/kg/injection, schedule: Q01DX001 (ip), vehicle: saline with Tween-80 86 % of control

CS(=O)(=O)/C=C\c1ccccc1
inactive: [2] 101 % of control | [3] 95 % of control | [4] 103 % of control

COC(=O)/C=C/C(=O)OC
inactive: dose: 25.0 mg/kg/injection, schedule: Q04DX002 (ip), vehicle: Klucel (hydroxypropylcellulose) (HPC) 97 % of control | dose: 50.0 mg/kg/injection, schedule: Q04DX002 (ip), vehicle: Klucel (hydroxypropylcellulose) (HPC) 100 % of control | [1] 103 % of control | dose: 100.0 mg/kg/injection, schedule: Q04DX003 (ip), vehicle: Klucel (hydroxypropylcellulose) (HPC) 104 % of control | [2] 101 % of control | dose: 200.0 mg/kg/injection, schedule: Q04DX003 (ip), vehicle: Klucel (hydroxypropylcellulose) (HPC) 101 % of control | [3] 107 % of control | dose: 400.0 mg/kg/injection, schedule: Q04DX003 (ip), vehicle: Klucel (hydroxypropylcellulose) (HPC) 112 % of control | [4] 103 % of control

C=Cc1nc2ccccc2[nH]1 (tested in a mixture with another compound)
inactive: dose: 5.0 mg/kg/injection, schedule: Q01DX001 (ip), vehicle: saline 95 % of control | dose: 10.0 mg/kg/injection, schedule: Q01DX001 (ip), vehicle: saline 96 % of control | dose: 20.0 mg/kg/injection, schedule: Q01DX001 (ip), vehicle: saline 96 % of control | dose: 80.0 mg/kg/injection, schedule: Q01DX001 (ip), vehicle: saline 102 % of control

O=S(=O)(CCl)Nc1ccncc1
inactive: dose: 100.0 mg/kg/injection, schedule: Q04DX013 (ip), vehicle: carboxymethylcellulose (CMC) 101 % of control | dose: 200.0 mg/kg/injection, schedule: Q04DX013 (ip), vehicle: carboxymethylcellulose (CMC) 100 % of control | dose: 400.0 mg/kg/injection, schedule: Q04DX013 (ip), vehicle: carboxymethylcellulose (CMC) 100 % of control

CCCCCCCCNc1cc2c3c(c1)CCCN3CCC2
inactive: dose: 0.78 mg/kg/injection, schedule: Q01DX009 (ip), vehicle: alcohol 110 % of control | dose: 1.56 mg/kg/injection, schedule: Q01DX009 (ip), vehicle: alcohol 102 % of control | dose: 1.56 mg/kg/injection, schedule: Q04DX003 (ip), vehicle: alcohol 102 % of control | dose: 3.12 mg/kg/injection, schedule: Q01DX009 (ip), vehicle: alcohol 113 % of control | dose: 3.12 mg/kg/injection, schedule: Q04DX003 (ip), vehicle: alcohol 108 % of control | dose: 6.25 mg/kg/injection, schedule: Q04DX003 (ip), vehicle: alcohol 97 % of control | dose: 25.0 mg/kg/injection, schedule: Q04DX003 (ip), vehicle: alcohol 88 % of control

S=c1nc2[nH]c3ccccc3c2n[nH]1
inactive: dose: 100.0 mg/kg/injection, schedule: Q04DX003 (ip), vehicle: saline with Tween-80 94 % of control | dose: 200.0 mg/kg/injection, schedule: Q04DX003 (ip), vehicle: saline with Tween-80 89 % of control

O=C(O)c1ccc(C2CC2)cc1
inactive: dose: 100.0 mg/kg/injection, schedule: Q01DX001 (ip), vehicle: other 103 % of control | dose: 100.0 mg/kg/injection, schedule: Q04DX003 (ip), vehicle: other 103 % of control | dose: 200.0 mg/kg/injection, schedule: Q01DX001 (ip), vehicle: other 108 % of control | dose: 200.0 mg/kg/injection, schedule: Q04DX003 (ip), vehicle: other 111 % of control | dose: 400.0 mg/kg/injection, schedule: Q01DX001 (ip), vehicle: other 95 % of control | dose: 400.0 mg/kg/injection, schedule: Q04DX003 (ip), vehicle: other 103 % of control

CCCCCCCCCCCCCCCCCC[As](=O)(O)CCCCCCCCCCCCCCCCCC
inactive: dose: 50.0 mg/kg/injection, schedule: Q01DX001 (ip), vehicle: saline 97 % of control | [5] 101 % of control | [6] 91 % of control | [7] 101 % of control

O=C(Nc1ccc(Cl)cc1C(F)(F)F)Oc1ccc(Cl)cc1Br
inactive: dose: 50.0 mg/kg/injection, schedule: Q01DX009 (ip), vehicle: saline with Tween-80 98 % of control | dose: 100.0 mg/kg/injection, schedule: Q01DX009 (ip), vehicle: saline with Tween-80 103 % of control | dose: 200.0 mg/kg/injection, schedule: Q01DX009 (ip), vehicle: saline with Tween-80 103 % of control

CCC(C)C(CCN(C)CC)(CNC(=O)CN(CC)CC)c1cccc2ccccc12 (stereo not given)
inactive: dose: 50.0 mg/kg/injection, schedule: Q04DX002 (ip), vehicle: saline 106 % of control | dose: 100.0 mg/kg/injection, schedule: Q01DX009 (ip), vehicle: saline 96 % of control | dose: 100.0 mg/kg/injection, schedule: Q04DX002 (ip), vehicle: saline 97 % of control
